Data published in patent US20260284049A1 (BRISTOL-MYERS SQUIBB COMPANY, priority 2023, published 2026).
Like-named read-outs stand apart in the source and are kept apart here.

Columns and labels:
[1] = test system: QT/QTc interval (cardiac repolarization); assay type: in vivo, human
Text: The upper bound of two-sided 90% CI for the largest difference in mean change from baseline in QTc intervals (ΔQTc; […].
A total of 66 participants were enrolled in the study and randomly assigned to 1 of 4 possible treatment sequences. […].
Forty-five (68.2%) participants completed all 4 periods with study intervention as planned. […]

[2] = test system: activated partial thromboplastin time (aPTT); test: AXIOMATIC-TKR: aPTT and ratio to baseline; assay type: in vivo, human
Protocol: In some embodiments, aPTT is measured as follows: Plasma samples are incubated with Actin FS aPTT assay reagent containing a standard amount of phospholipid and contact activator (ellagic acid) which activates the intrinsic coagulation pathway. After incubating for 3 minutes, calcium chloride is added to initiate coagulation and formation of a fibrin clot is measured optically. The time to clot formation (measured in seconds) is reported as the Activated Partial Thromboplastin Time (aPTT). […]
(§1) PD analyses were performed on the PD analysis set, defined as subjects who had at least one valid blood sample drawn for PD. Descriptive statistics (N, mean, SD, median, range, CV (%) and IQ range) were used to summarize PD response at each nominal sampling time point by treatment group. Changes from baseline were summarized when applicable. PD response outside of limit of quantitation were not to be imputed and were to be noted in the summary statistics.

[3] = target: Factor XI Activity (Homo sapiens, UniProt P03951); test: AXIOMATIC-TKR: FXI clotting activity (FXI:c); assay type: in vivo; parameters: dose or concentration left out as unconfirmed
Factor XI Activity, sequence (P03951 19-625): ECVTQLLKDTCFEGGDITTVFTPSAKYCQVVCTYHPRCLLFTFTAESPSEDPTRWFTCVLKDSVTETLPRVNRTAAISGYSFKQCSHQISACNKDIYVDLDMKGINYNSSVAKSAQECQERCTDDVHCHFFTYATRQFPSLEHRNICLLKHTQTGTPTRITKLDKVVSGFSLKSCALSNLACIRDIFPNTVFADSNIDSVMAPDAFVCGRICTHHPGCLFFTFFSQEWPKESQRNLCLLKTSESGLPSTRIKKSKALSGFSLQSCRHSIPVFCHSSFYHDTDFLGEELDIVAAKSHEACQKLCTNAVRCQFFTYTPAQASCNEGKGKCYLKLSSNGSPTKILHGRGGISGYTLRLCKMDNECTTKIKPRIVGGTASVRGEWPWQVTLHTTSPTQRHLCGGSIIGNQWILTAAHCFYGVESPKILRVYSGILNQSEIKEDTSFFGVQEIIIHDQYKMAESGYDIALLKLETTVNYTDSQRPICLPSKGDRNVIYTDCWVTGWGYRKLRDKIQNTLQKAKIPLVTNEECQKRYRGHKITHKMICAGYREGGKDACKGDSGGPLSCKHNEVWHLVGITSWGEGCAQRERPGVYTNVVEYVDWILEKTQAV
Protocol: As used herein, “Factor XI Clotting Activity” is determined utilizing an aPTT-based 1-stage clotting time assay. Serial dilutions of normal pooled plasma are mixed with FXI-depleted plasma and the clotting times are measured according to standard aPTT protocol, to establish a reference range. Subject test plasma is treated in the same way and compared with the reference plasma.
In some embodiments, the Factor XI Clotting Activity is measured as follows: Factor XI (FXI) activity is measured using a modification of the activated partial thromboplastin time (aPTT) using Actin FS (Siemens Healthcare) on the Siemens BCS® XP analyzer. […] The reference standard, at approximately 100%, is diluted by the BCS® XP analyzer in saline to generate pre-selected calibration levels of FXI. The calibration curve is plotted with FXI activity in percent (%) on the x-axis and clotting time in seconds on the y-axis. A log/lin regression curve fit is used. […] APTT reagent (Actin FS) is added and the mixture is incubated. Following incubation, calcium chloride is added to the mixture and the time to clot formation (measured optically) is compared to the time on the calibration curve. Samples are tested at the base dilution (1:10) prepared by the BCS® XP in saline.
(§2) Assessment of the dose-response for the occurrence of any bleeding was a secondary objective.
as §1

[4] = test system: participants undergoing primary unilateral elective TKR surgery
[5] = test system: VTE prevention in orthopedic surgery; settings: cited from earlier work; for VTE prevention in orthopedic surgery vs enoxaparin 40 mg once daily: historical Phase 3 studies; for bleeding: Phase 2 orthopedic surgery studies and in combination with antiplatelets after an ACS
[6] = test system: thrombin generation; test: AXIOMATIC-TKR: Thrombin Generation Assay (TGA): peak height, ETP, lag time; assay type: in vivo, human; settings: Milvexian 25 mg QD; Day 10-14
Text: (§3) (AXIOMATIC-TKR Phase II).
As used herein, “Thrombin Generation Assay (TGA)” is a global coagulation assay that evaluates the thrombogenic capacity of a plasma sample and has been proposed that it may better reflect prothrombotic or hemorrhagic states than conventional clotting assays. In the traditional TGA, coagulation of citrated plasma is initiated through the extrinsic pathway by adding tissue factor, phospholipids, and calcium. For this study, in the in-vitro thrombin generation assay (TGA) using human platelet-rich plasma, and a kaolin slurry was used instead to initiate coagulation through the contact activation pathway. Thrombin generation is continuously monitored through the product released by cleavage of a thrombin-specific fluorogenic substrate.
as §2, §1

[7] = clinical; settings: human, in vivo, po
Text: as §3, §2

[8] = test system: cardiac potassium (hERG/IKr) channel; test: In vitro cardiac potassium channel current inhibition; assay type: cell-based; settings: concentrations that greatly exceed unbound plasma concentrations
[9] = clinical; settings: human, in vivo, po, median Tmax, healthy volunteers
[10] = test system: participants with ischemic stroke or TIA; settings: for Hemorragic Stroke Incidence Rate (n/N %) / Subjects With Hemorragic Stroke n: up to Day 21
Text: The study enrolled participants ≥40 years of age who had ischemic stroke or TIA. Ischemic stroke was defined as a neurological deficit attributable to a non-lacunar, acute brain infarction detected by neuroimaging and relevant to the clinical symptoms and National Institutes of Health Stroke Score (NIHSS) ≤7 at the time of randomization. TIA was defined as acute onset neurological deficit attributable to focal ischemia of the brain by history or examination, with complete resolution of the deficit and no brain infarction on neuroimaging and ABCD score ≥6 or presence of motor symptoms. Evidence of relevant intracranial or cervical arterial atherosclerotic plaque, ulceration or thrombus in a feeding artery documented by imaging was required regardless of whether the index event was ischemic stroke or TIA, and all participants were required to have a Modified Rankin Score ≤3 before the index event. […] Following informed consent, participants received ASA 100 mg QD and a single loading dose of clopidogrel 300 mg if not already given as standard of care. […] A second MRI was performed on Day 90±6 days. All participants were required to remain on study treatment until the Day 90 MRI was performed up to Day 96.
From 27 Jan. […] The 200 mg BID arm was opened on 5 Jun.

[11] = 40 mg QD subcutaneous, Day 1 2 h
[12] = 40 mg QD subcutaneous, Day 1 4 h
[13] = 40 mg QD subcutaneous, Day 2 Predose
[14] = 40 mg QD subcutaneous, Day 4 4 h
[15] = 40 mg QD subcutaneous, Day 4 Predose
[16] = 40 mg QD subcutaneous, Day 10-14

Question: Which “participants with treatment-emergent change from baseline of QTcB >60 ms” value ([1]; single dose of 400 mg) does the source give for `COc1c(N2C[C@@H]3CCCN[C@@H]3C2)c(F)cc2c(=O)c(C(=O)O)cn(C3CC3)c12` [moxifloxacin, reference compound] here?
Answer: The value was 1.7%.

Question: Which “aPTT Measured Value, Mean” value [2, 11] does the source give for enoxaparin here?
Answer: Its value is 37.03 s.

Question: What about the “aPTT Measured Value, Med” value [2, 11] of the same molecule?
Answer: Its value is 27.5 s.

Question: What about the “aPTT Measured Value, Mean” value [2, 12] of the same molecule?
Answer: Its value is 29.14 s.

Question: And the “aPTT Measured Value, Med” value [2, 12]?
Answer: Its value is 27.75 s.

Question: And the “aPTT Measured Value, Mean” value [2, 13]?
Answer: The value was 28.11 s.

Question: And the “aPTT Measured Value, Med” value [2, 13]?
Answer: The value was 27.4 s.

Question: What about the “aPTT Measured Value, Mean” value [2, 14] of the same molecule?
Answer: The value was 27.37 s.

Question: And the “aPTT Measured Value, Med” value [2, 14]?
Answer: The value was 26.1 s.

Question: What about the “aPTT Measured Value, Mean” value [2, 15] of the same molecule?
Answer: The value was 26.03 s.

Question: What about the “aPTT Measured Value, Med” value [2, 15] of the same molecule?
Answer: Its value is 25.8 s.

Question: What about the “aPTT Measured Value, Mean” value [2, 16] of the same molecule?
Answer: Its value is 27.8 s.

Question: And the “aPTT Measured Value, Med” value [2, 16]?
Answer: The value was 25.9 s.

Question: What about the “Factor XI Activity Measured Value, Mean” value ([3]; Day 1 4 h) of the same molecule?
Answer: Its value is 1.06 fraction of 1.

Question: And the “Factor XI Activity Measured Value, Med” value ([3]; Day 1 4 h)?
Answer: Its value is 1.07 fraction of 1.

Question: And the “Factor XI Activity Measured Value, Mean” value ([3]; Day 10-14)?
Answer: Its value is 1.36 fraction of 1.

Question: And the “Factor XI Activity Measured Value, Med” value ([3]; Day 10-14)?
Answer: The value was 1.39 fraction of 1.

Question: What about the “Total VTE, participants n” value ([4]; 40 mg QD subcutaneous (N=252)) of the same molecule?
Answer: Its value is 54.

Question: And the “total venous thromboembolism (VTE) rate” value ([4]; 40 mg once daily subcutaneous)?
Answer: Its value is 21.4%.

Question: What does the source list for `COc1ccc(-n2nc(C(N)=O)c3c2C(=O)N(c2ccc(N4CCCCC4=O)cc2)CC3)cc1` [apixaban]?
Answer: VTE prevention in orthopedic surgery vs enoxaparin 40 mg once daily ([5]; 2.5 mg twice daily): superior to enoxaparin; bleeding [5]: dose-related bleeding

Question: What does the source list for `C[C@@H]1CCC[C@H](n2cnc(-c3cc(Cl)ccc3-n3cc(Cl)nn3)cc2=O)c2cc(ccn2)-c2c(cnn2C(F)F)NC1=O` [milvexian, (5R,9S)-9-(4-(5-chloro-2-(4-chloro-1H-1,2,3-triazol-1-yl)phenyl)-6-oxopyrimidin-1(6H)-yl)-2^1-(difluoromethyl)-5-methyl-2^1H-3-aza-1(4,2)-pyridina-2(5,4)-pyrazolacyclonaphan-4-one]?
Answer: ETP Lag Time, Measured Value, Med [6]: 10.33 min; Tmax at 96 h ([7]; Day 4, 25 mg and 100 mg twice daily): ~2 h; Tmax at 96 h ([7]; Day 4, 50 mg and 200 mg once daily): ~4 h; inhibition of cardiac potassium (hERG/IKr) channel currents [8]: weak to moderate potency; Tmax ([9]; once daily): 2 to 3 h; Tmax ([9]; twice daily): ~3 h; aPTT Measured Value, Med ([2]; 50 mg QD, Day 4 4 h): 52 s; dose-response relationship for bleeding events ([4]; AXIOMATIC-TKR or AXIOMATIC-SSP): No dose-response relationship was observed; fatal bleeding and symptomatic intracranial hemorrhage ([4]; Phase 2 studies): No fatal bleeding and no increases in symptomatic intracranial hemorrhage; Total VTE, participants n ([4]; milvexian BID dose regimens (N=518)): 63; changes over time in HR, RR interval, PR interval, or QRS width ([1]; 100 mg and 200 mg twice daily): No consistent or clinically relevant changes; treatment-emergent QTcF or QTcB >480 ms or changes from baseline >60 ms ([1]; 100 mg and 200 mg twice daily for 4 days): No treatment-emergent actual values of QTcF or QTcB >480 ms or changes from baseline >60 ms were observed; upper bound of two-sided 90% CI for the largest ΔΔQTc (QTcF) ([1]; supratherapeutic 200 mg twice daily as solution): less than 10 milliseconds; upper bound of two-sided 90% CI for the largest ΔΔQTc (QTcF) ([1]; therapeutic 100 mg twice daily as capsule): less than 10 milliseconds; QT/QTc interval prolongation ([1]; therapeutic (100 mg) and supratherapeutic (200 mg) doses, ICH E14): does not show evidence of QT/QTc interval prolongation of clinical or regulatory concern; Hemorragic Stroke Incidence Rate (n/N %) ([10]; 25 mg BID): 0 (0) %; Subjects With Hemorragic Stroke n ([10]; 25 mg BID): 0 (0); New Ischemic Stroke, MI and All Cause Death: Subjects With Event n ([10]; 25 mg BID, up to Day 90): 15; Hemorragic Stroke Incidence Rate (n/N %) ([10]; 25 mg QD): 0 (0) %; Subjects With Hemorragic Stroke n ([10]; 25 mg QD): 0 (0); Ischemic Stroke (n/N %) ([10]; 25 mg QD, up to Day 90): 4.6%; New Ischemic Stroke, MI and All Cause Death: Subjects With Event (n/N %) ([10]; 25 mg QD, up to Day 90): 5.2%; HR for clinical ischemic strokes vs placebo ([10]; 25 mg twice daily, 95% CI 0.36-1.30): 0.69; Hemorragic Stroke Incidence Rate (n/N %) ([10]; 50 mg BID): 0 (0) %; Subjects With Hemorragic Stroke n ([10]; 50 mg BID): 0 (0); Hemorragic Stroke Incidence Rate (n/N %) ([10]; 100 mg BID): 0 (0) %; Subjects With Hemorragic Stroke n ([10]; 100 mg BID): 0 (0); New Ischemic Stroke, MI and All Cause Death: Subjects With Event (n/N %) ([10]; 100 mg BID, up to Day 90): 5.2%; rate of early treatment discontinuation ([10]; 200 mg BID, primarily due to AEs): 31.6%; Hemorragic Stroke Incidence Rate (n/N %) ([10]; 200 mg BID): 0 (0) %; Subjects With Hemorragic Stroke n ([10]; 200 mg BID): 0 (0); New Ischemic Stroke, MI and All Cause Death: Subjects With Event (n/N %) ([10]; 200 mg BID, up to Day 90): 9.4%

Question: Which results are given for `O=C(NC[C@H]1CN(c2ccc(N3CCOCC3=O)cc2)C(=O)O1)c1ccc(Cl)s1` [rivaroxaban]?
Answer: VTE prevention in orthopedic surgery vs enoxaparin 40 mg once daily ([5]; 10 mg once daily): superior to enoxaparin; bleeding [5]: dose-related bleeding
